Reference: patent US5122523A, “N-acylamino acid derivatives and their pharmaceutical compositions” (Banyu Pharmaceutical Co., Ltd., priority 1987, dated 1992)
One block for each compound: values may come before it.

Tests used:
human plasma renin = biological target: T1, human plasma renin (Homo sapiens, UniProt P00797); assay: Renin inhibiting activities (human plasma, angiotensin I by radioimmunoassay); assay type: biochemical; conditions: pH7.4, 37° C., one hour
T1 construct: from tissue; host or cells: human plasma
T1 sequence (P00797 67-406): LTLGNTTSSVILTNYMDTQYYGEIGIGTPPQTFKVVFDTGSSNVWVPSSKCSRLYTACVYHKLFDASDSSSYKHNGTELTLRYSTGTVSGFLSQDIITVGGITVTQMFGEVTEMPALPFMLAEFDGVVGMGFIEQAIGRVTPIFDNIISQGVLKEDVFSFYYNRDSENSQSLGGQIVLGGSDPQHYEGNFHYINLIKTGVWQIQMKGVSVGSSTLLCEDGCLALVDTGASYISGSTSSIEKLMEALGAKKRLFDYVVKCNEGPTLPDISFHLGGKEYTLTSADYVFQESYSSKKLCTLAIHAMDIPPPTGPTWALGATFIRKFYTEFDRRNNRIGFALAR
Experimental: TEST EXAMPLE 1: Renin inhibiting activities
To 156 μl of a 0.2M sodium phosphate buffer solution (pH7.4), 40 μl of a solution mixture of 34 mM 8-hydroxyquinoline and 100 mM disodium ethylenediamine tetraacetate, 4 μl of dimethyl sulfoxide or a dimethyl sulfoxide solution of an inhibitor and 200 μl of human plasma were added and reacted at 37° C. for one hour. Then, pepstatin was added thereto to terminate the reaction, and the amount of the resulting angiotension I was measured by radio immunoassay whereby the inhibiting activity was determined.

[1] = Absorption test by oral administration in rats (plasma concentration); assay type: in vivo; conditions: rat, rats (n=4), 10 mg/kg oral, read-out: Concentration of the compound in plasma
Experimental: TEST EXAMPLE 2: Absorption test by oral administration
10 mg/kg of the compound of Example 16 was orally administered to rats (n=4), whereupon the concentration of the compound in the plasma was measured. The concentration in the plasma was calculated by the inhibiting activities against human plasma renin.

- IC50 (human plasma renin): 1.4 nM
Structure (SMILES): CCCC[C@H](NC(=O)[C@@H](CSc1nncs1)Cc1cccc2ccccc12)C(=O)N[C@@H](CC(C)C)[C@@H](O)CC(CC)C(=O)NCC(C)C (stereo partly drawn) [Example 5, (2RS,4S,5S),-5-{L-N-[(2S)-3-(1,3,4-thiadiazol-2-yl)thio-2-(1-naphthylmethyl)propionyl]norleucyl}amino-2-ethyl-4-hydroxy-7-methyloctanoic acid isobutylamide]

- IC50 (human plasma renin): 2 nM
Structure (SMILES): CCCC[C@H](NC(=O)[C@H](Cc1ccccc1)CS(=O)(=O)Cc1ccco1)C(=O)N[C@@H](CC1CCCCC1)[C@@H](O)[C@@H](O)CN1CCOCC1 [Example 56, (2S,3R,4S)-4-{L-N-[(2S)-2-benzyl-3-furfurylsulfonylpropionyl]norleucyl}amino-5-cyclohexyl-1-morpholino-2,3-pentanediol]

- IC50 (human plasma renin): 0.17 nM
Structure (SMILES): CCCC[C@H](NC(=O)C(Cc1cccc2ccccc12)CS(=O)(=O)c1ncccn1)C(=O)N[C@@H](CC(C)C)[C@@H](O)CC(CC)C(=O)NCC(C)C (single isomer, unassigned) [Example 2, (2RS,4S,5S)-5-{L-N-[(2R or S)-3-(pyrimidin-2-yl)sulfonyl-2-(1-naphthylmethyl)propionyl]norleucyl}amino-2-ethyl-4-hydroxy-7-methyloctanoic acid isobutylamide]

- IC50 (human plasma renin): 1.9 nM
Structure (SMILES): CCCC[C@H](NC(=O)C(CCCS(=O)(=O)CC)Cc1cccc2ccccc12)C(=O)N[C@@H](CC(C)C)[C@@H](O)CC(CC)C(=O)NCC(C)C (single isomer, unassigned) [Example 13, (2RS,4S,5S)-5-{L-N-[(2R or S)-5-ethylsulfonyl-2-(1-naphthylmethyl)pentanoyl]norleucyl}amino-2-ethyl-4-hydroxy-7-methyloctanoic acid isobutylamide]

- concentration at 0.5 h ([1]; 1/2 hrs): 267 ng/mL
- concentration at 0.25 h ([1]; 1/4 hrs): 212 ng/mL
- concentration at 10 min ([1]; 1/6 hrs): 136 ng/mL
- concentration at 5 min ([1]; 1/12 hrs): 89 ng/mL
- concentration at 1 h ([1]; 1 hr): 183 ng/mL
- concentration at 2 h ([1]; 2 hrs): 85 ng/mL
- concentration at 4 h ([1]; 4 hrs): 34 ng/mL
- concentration at 8 h ([1]; 8 hrs): 12 ng/mL
- concentration at 24 h ([1]; 24 hrs): 7 ng/mL
- IC50 (human plasma renin): 3.4 nM
Structure (SMILES): CCCC[C@H](NC(=O)C(Cc1cccc2ccccc12)CS(=O)(=O)CC)C(=O)N[C@@H](CC1CCCCC1)[C@@H](O)[C@H](O)CN1CCOCC1 (mixture of isomers) [Example 16, (2RS,3RS,4S)-4-{L-N-[3-ethylsulfonyl-2-(1-naphthylmethyl)propionyl]norleucyl}amino-5-cyclohexyl-1-morpholino-2,3-pentandiol]

- IC50 (human plasma renin): 3 nM
Structure (SMILES): CCCC[C@H](NC(=O)[C@H](Cc1ccccc1)CS(=O)(=O)C1CCCC1)C(=O)N[C@@H](CC1CCCCC1)[C@@H](O)[C@@H](O)C[N+]1([O-])CCOCC1 [Example 52, N-[(2S,3R,4S)-4-[L-N-[(2S)-3-cyclopentanesulfonyl-2-benzylpropionyl]norleucyl]amino-5-cyclohexyl-2,3-dihydroxypentyl]morpholine N-oxide]
